In patent US8735632B2, “Compounds” (DSM IP Assets B.V., priority 2009, dated 2014):

Experiments:
Type in all cases: physicochemical
[1] = Solubility of BMDBM/BEMT in 1:1 (w/w) mixture C12-15 alkyl benzoate/PG-UVB, stored 1 month at RT, no re-crystallization
[2] = Solubility in C12-15 alkyl benzoate: saturation of the solvent, content in the supernatant by HPLC; details: pure cosmetic solvent
[3] = Reduction of solvent necessary to dissolve solid UV-filter; details: for reduction of the cosmetic solvent necessary to dissolve BMDBM: with PG-UVB 1:1
[4] = C12-15 alkyl benzoate/PG-UVB 1:1 versus C12-15 alkyl benzoate

Δ solubility related to cosmetic solvent ([1]; C12-15 alkyl benzoate/PG-UVB 1:1)	Increase of solubility BMDBM/BEMT [1, 4]	Δ solubility [1, 4]	Solubility in C12-15 alkyl benzoate [2] [wt.-%]	reduction of the cosmetic solvent necessary to dissolve BMDBM ([3]; C12-15 alkyl benzoate) [%]	reduction of the cosmetic solvent necessary to dissolve BMDBM ([3]; diisopropyl sebacate) [%]	amount of 1:1 (w/w) mixture of PG-UVB and C12-15 alkyl benzoate necessary to dissolve 0.5 g BMDBM ([3]; with PG-UVB of example 1) [g]	amount of 1:1 (w/w) mixture of PG-UVB and diisopropyl sebacate needed to dissolve 0.5 g BMDBM ([3]; with PG-UVB of example 1) [g]	Compound
+13.5 wt.-%	+54%	+7 wt.-%	13	–	–	–	–	CCCCC(CC)COc1ccc(-c2nc(-c3ccc(OC)cc3)nc(-c3ccc(OCC(CC)CCCC)cc3O)n2)c(O)c1 (centres unmarked) [BEMT, bis-ethylhexyloxyphenol methoxyphenyl triazine]
–	–	–	–	75	65	1.5	1.4	butyl methoxydibenzoylmethane [BMDBM]
